Measurements: patent US9926281B2 (priority 2014, dated 2018)
Where two headings read alike, the source gives them in different places.

Assays:
[1] = target: T1, human ADAMTS-5 (Homo sapiens (Human), UniProt Q9UNA0); details: read-out: hADAMTS-5 potency IC50
[2] = target: human TACE (Homo sapiens (Human), UniProt P78536); details: read-out: TACE potency IC50
[3] = target: human MMP13 (Homo sapiens (Human), UniProt P45452); details: read-out: hMMP-13 potency IC50
Procedure: Human MMP13 is preactivated by incubated the enzyme in the same buffer complemented with 1 mM freshly prepared p-Aminophenylmercuric acetate (AMPA) for 1 hour at 37° C.

[4] = target: T1, human ADAMTS-5; details: read-out: hADAMTS-5 potency IC50; remark: listed apart in the source
Procedure: Finally, the fluorescence is read on the Envision (Perkin Elmer) after an incubation of 90 min at 37° C.

[5] = target: rnADAMTS-5 (1-564-6H) (Rattus norvegicus, UniProt Q6TY19); details: read-out: Rat ADAMTS-5 potency IC50

T1 sequence (Q9UNA0 262-930): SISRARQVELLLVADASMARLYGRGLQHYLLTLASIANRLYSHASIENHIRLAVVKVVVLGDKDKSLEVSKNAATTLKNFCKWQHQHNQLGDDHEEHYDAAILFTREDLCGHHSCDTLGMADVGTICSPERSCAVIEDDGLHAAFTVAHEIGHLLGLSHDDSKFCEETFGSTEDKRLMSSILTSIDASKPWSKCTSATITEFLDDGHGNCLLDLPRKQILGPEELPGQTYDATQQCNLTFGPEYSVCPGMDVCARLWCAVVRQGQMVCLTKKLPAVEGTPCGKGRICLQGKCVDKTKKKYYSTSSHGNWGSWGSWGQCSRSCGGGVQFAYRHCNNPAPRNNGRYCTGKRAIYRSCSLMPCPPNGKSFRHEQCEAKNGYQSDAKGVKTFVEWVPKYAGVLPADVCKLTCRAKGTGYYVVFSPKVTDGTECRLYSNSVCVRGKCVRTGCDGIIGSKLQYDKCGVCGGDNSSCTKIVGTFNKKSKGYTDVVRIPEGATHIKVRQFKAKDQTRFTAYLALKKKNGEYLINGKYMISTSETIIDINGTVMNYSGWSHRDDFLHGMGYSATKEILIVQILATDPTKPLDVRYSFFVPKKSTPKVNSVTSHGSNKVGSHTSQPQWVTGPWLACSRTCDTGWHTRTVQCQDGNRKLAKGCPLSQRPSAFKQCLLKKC
human TACE, sequence (P78536 whole entry, looked up, change not shown): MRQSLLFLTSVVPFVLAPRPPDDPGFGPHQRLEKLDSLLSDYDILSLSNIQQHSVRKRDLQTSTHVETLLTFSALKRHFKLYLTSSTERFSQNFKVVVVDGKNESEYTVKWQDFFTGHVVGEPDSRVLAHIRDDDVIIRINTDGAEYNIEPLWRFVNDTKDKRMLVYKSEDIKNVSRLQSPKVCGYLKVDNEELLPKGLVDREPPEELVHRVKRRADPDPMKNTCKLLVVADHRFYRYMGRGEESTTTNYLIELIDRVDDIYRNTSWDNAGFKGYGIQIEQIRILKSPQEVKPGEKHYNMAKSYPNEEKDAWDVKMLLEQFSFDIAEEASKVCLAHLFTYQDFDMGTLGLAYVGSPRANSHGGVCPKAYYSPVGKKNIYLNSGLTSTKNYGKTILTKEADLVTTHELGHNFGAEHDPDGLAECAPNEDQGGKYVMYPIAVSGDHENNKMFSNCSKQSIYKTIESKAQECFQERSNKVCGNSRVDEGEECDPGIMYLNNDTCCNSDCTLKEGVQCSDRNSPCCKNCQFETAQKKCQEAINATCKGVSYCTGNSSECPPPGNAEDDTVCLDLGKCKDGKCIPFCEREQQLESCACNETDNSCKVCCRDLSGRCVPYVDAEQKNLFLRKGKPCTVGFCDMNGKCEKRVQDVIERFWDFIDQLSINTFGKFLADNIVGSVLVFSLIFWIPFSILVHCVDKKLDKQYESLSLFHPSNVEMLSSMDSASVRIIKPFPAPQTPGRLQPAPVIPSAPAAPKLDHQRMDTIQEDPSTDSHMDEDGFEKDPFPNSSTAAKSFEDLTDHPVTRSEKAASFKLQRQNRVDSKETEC

Compound: CC1CN(C(=O)CCC2(c3cccnc3)NC(=O)NC2=O)CCN1c1ccc(Cl)cc1 (stereo not shown) [compound 126, 5-[3-[4-(4-chlorophenyl)-3-methyl-piperazin-1-yl]-3-oxo-propyl]-5-(3-pyridyl)imidazolidine-2,4-dione]
- IC50 [1]: 106 nM
- IC50 [2]: > 4000 nM
- IC50 [3]: > 4000 nM

Compound: CC1(CCC(=O)N2CCN(c3cc(F)cc(Cl)c3)CC2)NC(=O)NC1=O (stereo not shown) [compound 117, 5-[3-[4-(3-chloro-5-fluoro-phenyl)piperazin-1-yl]-3-oxo-propyl]-5-methyl-imidazolidine-2,4-dione]
- IC50 [1]: 211 nM
- IC50 [2]: > 4000 nM
- IC50 [3]: > 4000 nM

Compound: CC1(CCC(=O)N2CCN(c3cccc(Br)c3)CC2)NC(=O)NC1=O (stereo not shown) [compound 48, 5-[3-[4-(3-bromophenyl)piperazin-1-yl]-3-oxo-propyl]-5-methyl-imidazolidine-2,4-dione]
- IC50 [1]: 391 nM

Compound: COc1ccc(Cl)cc1C1(CCC(=O)N2CCN(c3cccc(Cl)c3)CC2)NC(=O)NC1=O (stereo not shown) [compound 132, 5-(5-chloro-2-methoxy-phenyl)-5-[3-[4-(3-chlorophenyl)piperazin-1-yl]-3-oxo-propyl]imidazolidine-2,4-dione]
- IC50 [1]: 37 nM
- IC50 [2]: 348 nM
- IC50 [3]: 3290 nM

Compound: Cc1ccc(F)cc1N1CCN(C(=O)CCC2(C3CC3)NC(=O)NC2=O)CC1C (stereo not shown) [compound 129, 5-cyclopropyl-5-[3-[4-(5-fluoro-2-methyl-phenyl)-3-methyl-piperazin-1-yl]-3-oxo-propyl]imidazolidine-2,4-dione]
- IC50 [1]: 150 nM
- IC50 [2]: > 4000 nM
- IC50 [3]: > 20000 nM

Compound: CC1(CCC(=O)N2CCN(c3cccc(Cl)c3Cl)CC2)NC(=O)NC1=O (stereo not shown) [compound 41, 5-[3-[4-(2,3-dichlorophenyl)piperazin-1-yl]-3-oxo-propyl]-5-methyl-imidazolidine-2,4-dione]
- IC50 [1]: 2660 nM

Compound: CC1(CCC(=O)N2CCN(c3ccccc3C#N)CC2)NC(=O)NC1=O (stereo not shown) [compound 29]
- IC50 [1]: > 12000 nM
- IC50 [4]: > 4000 nM

Compound: O=C1NC(=O)C(CCC(=O)N2CCN(c3ccc4occc4c3)CC2)(c2ccccc2)N1 (stereo not shown) [compound 25, 5-[3-[4-(benzofuran-5-yl)piperazin-1-yl]-3-oxo-propyl]-5-phenyl-imidazolidine-2,4-dione]
- IC50 [1]: 138 nM
- IC50 [2]: > 2000 nM

Compound: Cc1c(F)cccc1N1CCN(C(=O)CCC2(C)NC(=O)NC2=O)CC1 (stereo not shown) [compound 60, 5-[3-[4-(3-fluoro-2-methyl-phenyl)piperazin-1-yl]-3-oxo-propyl]-5-methyl-imidazolidine-2,4-dione]
- IC50 [1]: 1160 nM
- IC50 [2]: > 20000 nM
- IC50 [3]: > 20000 nM

Compound: Cc1ccccc1N1CCN(C(=O)CCC2(CN(C)C)NC(=O)NC2=O)CC1 (stereo not shown) [compound 119, 5-(dimethylaminomethyl)-5-[3-[4-(o-tolyl)piperazin-1-yl]-3-oxo-propyl]imidazolidine-2,4-dione]
- IC50 [1]: 1740 nM

Compound: CC1(CCC(=O)N2CCN(c3cccnc3)CC2)NC(=O)NC1=O (stereo not shown) [compound 43, 5-methyl-5-[3-oxo-3-[4-(3-pyridyl)piperazin-1-yl]propyl]imidazolidine-2,4-dione]
- IC50 [1]: 1530 nM
- IC50 [2]: > 20000 nM
- IC50 [3]: > 20000 nM

Compound: CN(C)CCC1(CCC(=O)N2CCN(c3cc(Cl)cc(Cl)c3)CC2)NC(=O)NC1=O (stereo not shown) [compound 58, 5-[3-[4-(3,5-dichlorophenyl)piperazin-1-yl]-3-oxo-propyl]-5-(2-dimethylaminoethyl)imidazolidine-2,4-dione]
- IC50 [1]: > 20000 nM

Compound: CC1CN(C(=O)CCC2(C3CC3)NC(=O)NC2=O)CCN1c1cc(Cl)cc(Cl)c1 (stereo not shown) [compound 130, 5-cyclopropyl-5-[3-[4-(3,5-dichlorophenyl)-3-methyl-piperazin-1-yl]-3-oxo-propyl]imidazolidine-2,4-dione]
- IC50 [1]: 126 nM
- IC50 [2]: > 4000 nM
- IC50 [3]: > 20000 nM

Compound: Cc1ccccc1N1CCN(C(=O)CCC2(C(C)C)NC(=O)NC2=O)CC1 (stereo not shown) [compound 32, 5-isopropyl-5-[3-[4-(o-tolyl)piperazin-1-yl]-3-oxo-propyl]imidazolidine-2,4-dione]
- IC50 [1]: 385 nM
- IC50 [2]: > 4000 nM

Compound: C[C@@H]1CN(C(=O)CCC2(C3CC3)NC(=O)NC2=O)CCN1c1ccccc1 (stereo partly drawn) [compound 128, 5-cyclopropyl-5-[3-[(3R)-3-methyl-4-phenyl-piperazin-1-yl]-3-oxo-propyl]imidazolidine-2,4-dione]
- IC50 [1]: 1170 nM
- IC50 [2]: > 20000 nM
- IC50 [3]: > 20000 nM

Compound: CC1(CCC(=O)N2CCN(c3ccc(F)c(Cl)c3)CC2)NC(=O)NC1=O (stereo not shown) [compound 52, 5-[3-[4-(3-chloro-4-fluoro-phenyl)piperazin-1-yl]-3-oxo-propyl]-5-methyl-imidazolidine-2,4-dione]
- IC50 [1]: 281 nM
- IC50 [2]: > 20000 nM

Compound: Cc1cccc(C2(CCC(=O)N3CCN(c4cccc(Cl)c4)CC3)NC(=O)NC2=O)c1 (stereo not shown) [compound 141, 5-[3-[4-(3-chlorophenyl)piperazin-1-yl]-3-oxo-propyl]-5-(m-tolyl)imidazolidine-2,4-dione]
- IC50 [1]: 119 nM

Compound: CC1(CCC(=O)N2CCN(c3ccc(F)c(F)c3)CC2)NC(=O)NC1=O (stereo not shown) [compound 37, 5-[3-[4-(3,4-difluorophenyl)piperazin-1-yl]-3-oxo-propyl]-5-methyl-imidazolidine-2,4-dione]
- IC50 [1]: 229 nM
- IC50 [2]: > 20000 nM

Compound: CC1(CCC(=O)N2CCN(c3nccs3)CC2)NC(=O)NC1=O (stereo not shown) [compound 59, 5-methyl-5-[3-oxo-3-(4-thiazol-2-ylpiperazin-1-yl)propyl]imidazolidine-2,4-dione]
- IC50 [1]: > 20000 nM

Compound: CC1CN(C(=O)CCC2(C)NC(=O)NC2=O)CCN1c1ccccc1 (stereo not shown) [compound 63, 5-methyl-5-[3-(3-methyl-4-phenyl-piperazin-1-yl)-3-oxo-propyl]imidazolidine-2,4-dione]
- IC50 [1]: 1240 nM
- IC50 [2]: > 20000 nM

Compound: CC1(CCC(=O)N2CCN(c3ccccc3F)CC2)NC(=O)NC1=O (stereo not shown) [compound 30, 5-[3-[4-(2-fluorophenyl)piperazin-1-yl]-3-oxo-propyl]-5-methyl-imidazolidine-2,4-dione]
- IC50 [1]: > 4000 nM
- IC50 [4]: > 4000 nM

Compound: Cc1ccc(N2CCN(C(=O)CCC3(C)NC(=O)NC3=O)CC2)c(C)c1 (stereo not shown) [compound 38, 5-[3-[4-(2,4-dimethylphenyl)piperazin-1-yl]-3-oxo-propyl]-5-methyl-imidazolidine-2,4-dione]
- IC50 [1]: > 4000 nM

Compound: CC1(CCC(=O)N2CCN(c3ccccn3)CC2)NC(=O)NC1=O (stereo not shown) [compound 42, 5-methyl-5-[3-oxo-3-[4-(2-pyridyl)piperazin-1-yl]propyl]imidazolidine-2,4-dione]
- IC50 [1]: > 3980 nM

Compound: C[C@@H]1CN(C(=O)CCC2(c3ccccc3)NC(=O)NC2=O)CCN1c1ccccc1 (stereo partly drawn) [compound 131, 5-[3-[(3R)-3-methyl-4-phenyl-piperazin-1-yl]-3-oxo-propyl]-5-phenyl-imidazolidine-2,4-dione]
- IC50 [1]: 1260 nM

Compound: O=C1NC(=O)C(CCC(=O)N2CCN(c3ccc4scnc4c3)CC2)(c2ccccc2)N1 (stereo not shown) [compound 26, 5-[3-[4-(1,3-benzothiazol-5-yl)piperazin-1-yl]-3-oxo-propyl]-5-phenyl-imidazolidine-2,4-dione]
- IC50 [1]: 706 nM
- IC50 [2]: > 10000 nM

Compound: O=C1NC(=O)C(CCC(=O)N2CCN(c3cccnc3)CC2)(c2ccccc2)N1 (stereo not shown) [compound 45, 5-[3-oxo-3-[4-(3-pyridyl)piperazin-1-yl]propyl]-5-phenyl-imidazolidine-2,4-dione]
- IC50 [1]: 204 nM
- IC50 [2]: > 20000 nM

Compound: Cc1cc(F)ccc1N1CCN(C(=O)CCC2(C)NC(=O)NC2=O)CC1 (stereo not shown) [compound 61, 5-[3-[4-(4-fluoro-2-methyl-phenyl)piperazin-1-yl]-3-oxo-propyl]-5-methyl-imidazolidine-2,4-dione]
- IC50 [1]: 2940 nM

Compound: Cc1ccc(N2CCN(C(=O)CCC3(c4ccccc4)NC(=O)NC3=O)CC2)c(C)c1 (stereo not shown) [compound 31, 5-[3-[4-(2,4-dimethylphenyl)piperazin-1-yl]-3-oxo-propyl]-5-phenyl-imidazolidine-2,4-dione]
- IC50 [1]: 1060 nM

Compound: CC1CN(C(=O)CCC2(C3CC3)NC(=O)NC2=O)CCN1c1cccc(Cl)c1 (stereo not shown) [compound 150, 5-[3-[4-(3-chlorophenyl)-3-methyl-piperazin-1-yl]-3-oxo-propyl]-5-cyclopropyl-imidazolidine-2,4-dione]
- IC50 [1]: 95 nM

Compound: C[C@H]1CN(C(=O)CCC2(C)NC(=O)NC2=O)CCN1c1ccc(Cl)c(Cl)c1 (stereo partly drawn) [compound 168, 5-[3-[(3S)-4-(3,4-dichlorophenyl)-3-methyl-piperazin-1-yl]-3-oxo-propyl]-5-methyl-imidazolidine-2,4-dione]
- IC50 [5]: 129 nM
- IC50 [4]: 76 nM
- IC50 [2]: > 20000 nM
- IC50 [3]: > 20000 nM

Compound: Cc1ccc(C)c(N2CCN(C(=O)CCC3(C)NC(=O)NC3=O)CC2)c1 (stereo not shown) [compound 39, 5-[3-[4-(2,5-dimethylphenyl)piperazin-1-yl]-3-oxo-propyl]-5-methyl-imidazolidine-2,4-dione]
- IC50 [1]: 570 nM
- IC50 [2]: 588 nM

Compound: CC(CC1(C2CC2)NC(=O)NC1=O)C(=O)N1CCN(c2ccc(F)c(F)c2)[C@@H](C)C1 (stereo partly drawn) [compound 191, 5-cyclopropyl-5-[3-[(3S)-4-(3,4-difluorophenyl)-3-methyl-piperazin-1-yl]-2-methyl-3-oxo-propyl]imidazolidine-2,4-dione]
- IC50 [5]: 11 nM
- IC50 [4]: 20 nM
- IC50 [2]: > 20000 nM
- IC50 [3]: 1880 nM

Compound: CC1CN(C(=O)CCC2(C3CC3)NC(=O)NC2=O)CCN1c1cccc(F)c1 (stereo not shown) [compound 149, 5-cyclopropyl-5-[3-[4-(3-fluorophenyl)-3-methyl-piperazin-1-yl]-3-oxo-propyl]imidazolidine-2,4-dione]
- IC50 [1]: 79 nM

Compound: CC1CN(C(=O)CCC2(c3ccccc3)NC(=O)NC2=O)CCN1c1ccccc1 (stereo not shown) [compound 62, 5-[3-(3-methyl-4-phenyl-piperazin-1-yl)-3-oxo-propyl]-5-phenyl-imidazolidine-2,4-dione]
- IC50 [1]: 293 nM
- IC50 [2]: > 20000 nM
